According to US10179355B2, “Bioremediation enhancing agents and methods of use” (JRW BIOREMEDIATION, LLC, priority 2007, dated 2019):

System: dechlorinating bacteria known to convert PCE to ethene
Experiment: Set D: Lactic Acid Solids, PCE dechlorination microcosms (kinetics, Relative Rate)
Type: cell-based, Dehalococcoides and Dehalobacter spp.
Source text: Certain contaminated materials (or sites) may contain indigenous microbial communities that are sufficient for complete bioremediation of contaminants. For such sites, there is no need to add microbes unless the indigenous microbes are genetically deficient in achieving the desired clean-up goals. For those sites that are microbiologically limited, microorganisms may be added to the contaminated materials (or sites). In one embodiment, the inoculum may be a mixed culture of halo-respiring bacteria that have been enriched to reach an optimal cell density. These mixed cultures of halo-respiring bacteria may be typically obtained from sediment samples from rivers, streams or any waterways. More specifically, the inoculum used in the Examples was originated from a Sangamon River sediment sample (Lodge Park, Piatt County, Ill.) See, e.g., Brennan, R. A., Sanford, R. A. and […]. (2006). “Biodegradation of Tetrachloroethene by Chitin Fermentation Products in a Continuous Flow Column System.” Journal of Environ. Engr., June 665-673. […] Brennan, R. A., and Sanford, R. A. (2002). “Continuous steady-state method using Tenax for delivering tetrachloroethene to chlororespiring bacteria.” Appl. Environ. […] Using 16S rRNA gene-specific primers, both Dehalococcoides and Dehalobacter spp. were detected. […] For purpose of this disclosure, each bottle may be started with a certain amount of PCE. At subsequent times each bottle may be sampled for the degradation daughter products of PCE, namely trichloroethene (TCE), cis-dichloroethene (DCE), vinyl chloride (VC) and ethene, etc. […] The rate of degradation may be determined by calculating the number of pmoles of chloride ions removed from PCE and subsequently from the amounts of the daughter products generated. The calculation may be performed as follows: […] Next, the dechlorination rate may be determined for each bottle at each time by dividing the Chloride generated by the time (days). […] This ratio is called Relative Rate and is dimensionless. As shown in the Examples, a paired t-test has been conducted to calculate the probability that the Relative Rate of one group (i.e. with Nutrient) is greater than the other group (i.e. without Nutrient). The null hypothesis is that the underlying means of the two paired groups are equal. The Probability that one group has higher Relative Rates than the other group is shown in various tables in the Examples. […] Lactic Acid Solids is a mixture of lactic acid, oligimers of lactic acid and residual sugars. […] In addition, this set was used to characterize if and to what extent the Lactic Acid Solids was an efficacious electron donor for anaerobic bioremediation of contaminants in water.

## CC(O)C(=O)[O-].[Na+] (stereo not shown) [Lactate Control, sodium lactate]
0 days
  Cl^− Rate ± s.d.: 0.00 ± 0.00 µmol
  Cl^− ± s.d.: 0.00 ± 0.00 µmol
  DCE ± s.d.: 0.00 ± 0.00 µmol
  Ethene ± s.d.: 0.00 ± 0.00 µmol
  PCE ± s.d.: 19.54 ± 0.00 µmol
  TCE ± s.d.: 0.00 ± 0.00 µmol
  VC ± s.d.: 0.00 ± 0.00 µmol
22 days
  Cl^− Rate ± s.d.: 2.64 ± 0.00 µmol
  Cl^− ± s.d.: 58.02 ± 0.10 µmol
  DCE ± s.d.: 10.02 ± 0.06 µmol
  Ethene ± s.d.: 0.25 ± 0.07 µmol
  PCE ± s.d.: 0.00 ± 0.00 µmol
  TCE ± s.d.: 0.00 ± 0.00 µmol
  VC ± s.d.: 0.10 ± 0.03 µmol
36 days
  Cl^− Rate ± s.d.: 1.18 ± 0.01 µmol
  Cl^− ± s.d.: 63.68 ± 0.46 µmol
  DCE ± s.d.: 7.18 ± 0.26 µmol
  Ethene ± s.d.: 0.23 ± 0.19 µmol
  PCE ± s.d.: 0.00 ± 0.00 µmol
  TCE ± s.d.: 0.01 ± 0.02 µmol
  VC ± s.d.: 0.08 ± 0.01 µmol
50 days
  Cl^− Rate ± s.d.: 1.29 ± 0.06 µmol
  Cl^− ± s.d.: 64.63 ± 2.77 µmol
  DCE ± s.d.: 4.98 ± 0.67 µmol
  Ethene ± s.d.: 0.20 ± 0.09 µmol
  PCE ± s.d.: 0.00 ± 0.00 µmol
  TCE ± s.d.: 0.00 ± 0.00 µmol
  VC ± s.d.: 3.57 ± 1.88 µmol
